# In patent US5432179A, “Piperazine derivatives and pharmaceuticals containing the same” (Zeria Pharmaceutical Co., Ltd., priority 1991, dated 1995):
# Test system: passive cutaneous anaphylaxis (PCA)
# Assay: Antiallergic effects: passive cutaneous anaphylaxis (PCA), inhibition of leaked color amount
# Format: in vivo, male SD rat
# Conditions: rat PCA; oral, 10 mg/4 ml/kg one hour before the administration of antigen
# Method: The back of a male SD rat (150-250 g in weight) was shaved in advance. Physiological saline and 0.1 ml of anti DNP-AS (Dinitrophenyl conjugated Ascaris) IgE serum which had been diluted to a suitable concentration with physiological saline were intradermally injected there. Fourty-eight hours after sensitization, the animals were challenged with 1 ml of 0.5% Evans blue physiological saline containing 2.5 mg/ml of DNP-BSA (dinitrophenyl conjugated bovine serum albumin) via the tail vein. Thirty minutes later, they were sacrificed under exsanguination and the dorsal skin was removed and the exuded dye was measured according to the method proposed by Harada et al. [Allergy, 15, 1-7(1966)]. The leaked color amount caused by the passive cutaneous anaphylaxis (PCA) was determined by subtracting the leaked color amount of the site to which physiological saline was administered from that of the PCA site. Each test compound was suspended in 5% gum arabic or 0.5% methylcellulose and the-resulting suspension was orally administered at the rate of 10 mg/4 ml/kg one hour before the administration of antigen. The efficacy of the test compound was evaluated by an ihibition rate (antiallergic effects) of the leaked color amount.
row,Compound,Antiallergic effects (inhibition rate of the leaked color amount) [%]
1,2-[2-[4-[(4-Chlorophenyl)phenylmethyl]-1-piperazinyl]ethoxy]-1-tetrazol-5-ylmethyl [Example 69],81.0
2,"O=C(O)c1ccccc1OCCN1CCN(C(c2ccccc2)c2ccc(Cl)cc2)CC1 (stereo not drawn) [Example 5, 2-[2-[4-[(4-Chlorophenyl)phenylmethyl]-1-piperazinyl]ethoxy]benzoic acid]",86.4
3,"O=C(O)c1ccccc1OCCN1CCN(C(c2ccccc2)c2ccccc2)CC1 [Example 9, 2-[2-[4-(Diphenylmethyl]-1-piperazinyl]ethoxy]-benzoic acid]",61.9
4,"O=C(Nc1nnn[nH]1)c1ccccc1OCCN1CCN(C(c2ccccc2)c2ccc(Cl)cc2)CC1 (stereo not drawn) [Example 41, 2-[2-[4-[(4-Chlorophenyl)phenylmethyl]-1-piperazinyl]ethoxy]-N-1H-tetrazol-5-yl-benzamide]",52.3
5,"O=C(Nc1nnn[nH]1)c1ccccc1SCCN1CCN(C(c2ccccc2)c2ccc(Cl)cc2)CC1 (stereo not drawn) [Example 44, 2-[[2-[4-[(4-Chlorophenyl)phenylmethyl]-1-piperazinyl]ethyl]thio]-N-1H-tetrazol-5-yl-benzamide]",54.7
6,"O=C(Nc1nnn[nH]1)c1ccccc1OCCCN1CCN(C(c2ccccc2)c2ccc(Cl)cc2)CC1 (stereo not drawn) [Example 45, 2-[3-[4-[(4-Chlorophenyl)phenylmethyl]-1-piperazinyl]propoxy]-N-1H-tetrazol-5-yl-benzamide]",72.4
7,"O=C(Nc1nnn[nH]1)c1ccccc1OCCCN1CCN(C(c2ccccc2)c2ccccc2)CC1 [Example 46, 2-[3-[4-(Diphenylmethyl)-1-piperazinyl]propoxy]-N-1H-tetrazol-5-yl-benzamid]",59.8
8,"O=C(COCCN1CCN(C(c2ccccc2)c2ccc(Cl)cc2)CC1)Nc1nnn[nH]1 (stereo not drawn) [Example 50, 2-[2-[4-[(4-Chlorophenyl)phenylmethyl]-1-piperazinyl]ethoxy]-N-1H-tetrazol-5-yl-acetamide]",60.4

# Test system: contraction reaction of the isolated ileum caused by histamine
# Assay: Antihistamic effects: inhibition of histamine-induced contraction of isolated guinea pig ileum (Magnus bath)
# Format: cell-based, Hartley male guinea pig
# Conditions: Cavia porcellus, histamine 3×10^-7 mole, test compound for 3 minutes before histamine, 30° C., read-out: antihistamic action (50% inhibition concentration: IC50 value)
# Method: From a Hartley male guinea pig (300-600 g in weight), the ileum was isolated. The ileum was attached to a holder under a vesting tension of 0.5 g in a Magnus bath (30° C., under aeration) filled with 10 ml of the Tyrode solution. As a contraction reaction of the isolated ileum caused by histamine (3×10^-7 mole), an isometrical change in muscular tension was measured. The ileum was treated with the test compound for 3 minutes before the addition of histamine to study its effects and then its antihistamic action (50% inhibition concentration: IC50 value) was determined.
# Incidentally, the IC50 value of Cetirizine (the compound disclosed in Japanese Patent Laid-Open No. 149282/1982) was determined as a control. Its IC value was 2.40 μM.
row,Compound,IC50 [nM]
1,O=C(O)COCCN1CCN(C(c2ccccc2)c2ccc(Cl)cc2)CC1 (stereo not drawn) [Cetirizine],2400
